Here are results for 2 compounds from patent US10526322B2, “Inhibitors of kidney-type glutaminase, GLS-1” (CORNELL UNIVERSITY, priority 2014, dated 2020).

Molecules are shown by their SMILES.

The subject of experiment [1] is glutamine metabolism in Dbl-MEFs. Description: Metabolic tracing, mass isotopologue distribution with [U-13C]glutamine or [U-13C]glucose. It counts as cell-based, mouse. Here is the method: Methods for mass isotopologue distribution analyses using [U-^13C]glutamine or [U-^13C]glucose (Cambridge Isotope Laboratories) were adapted from Cheng et al., “Pyruvate Carboxylase Is Required for Glutamine-Independent Growth of Tumor Cells,” Proc. Natl. Acad. Sci. 108:8674-79 (2011), which is hereby incorporated by reference in its entirety. Briefly, induced (16 hours in complete media without Dox) or non-induced cells (complete media with 1 μg/mL Dox) were plated into 100 mm^2 dishes at a density such that the cells were approximately 60% confluent when adhered, at which point the cells were washed with PBS and grown to 80% confluence in DMEM supplemented with 1% Tet-approved FBS and 8 μM 968/27 for drug treated samples, or 0.8% DMSO for control samples, with or without 1 μg/mL Dox (i.e. overnight). When 80% confluent, cells were then washed with PBS and ^13C-labeling media containing the appropriate drug, DMSO, and Dox concentrations. Media was prepared from glucose- and glutamine-free DMEM powder (Sigma) and supplemented with 1% Tet-approved FBS, 2 mM L[U-^13C]glutamine and 15 mM unlabeled glucose or 15 mM D[U-^13C]glucose and 2 mM unlabeled glutamine (FIGS. 2F-G), together with 1 μg/mL Dox for non-induced samples. For samples containing [U-^13C]glutamine, cells were incubated for 1 hour before extracting metabolites, whereas samples containing [U-^13C]glucose were incubated for 8 hours. Metabolites were extracted by first washing cells twice with ice cold normal saline (0.9% w/v NaCl), followed by addition of 0.5 mL of a 1:1 methanol:water mixture (−20° C.). An internal standard (50 nmol of 2-oxobutyrate) was added and samples were subjected to 3 freeze-thaw cycles, after which macromolecules were separated by centrifugation. The supernatant was evaporated completely and remaining metabolites silylated in 100 μL of a trimethylsilyl donor (Tri-Sil, Thermo) for 30 minutes at 42° C. Metabolites were subjected to GC-MS analysis using an Agilent 6970 gas chromatograph networked to an Agilent 5973 mass selective detector. Metabolites were identified and isotope enrichment calculated as described by Cheng et al., “Pyruvate Carboxylase Is Required for Glutamine-Independent Growth of Tumor Cells,” Proc. Natl. Acad. Sci. 108:8674-79 (2011), which is hereby incorporated by reference in its entirety.

For the next experiment, the target named is T1, GAC (Mus musculus, UniProt D3Z7P3).
T1 construct: (residues 72-603) was cloned into a pET23a vector; His-tag with thrombin cleavage site (N, cleaved yes); made in house
T1 sequence (D3Z7P3 72-603 isoform D3Z7P3-2): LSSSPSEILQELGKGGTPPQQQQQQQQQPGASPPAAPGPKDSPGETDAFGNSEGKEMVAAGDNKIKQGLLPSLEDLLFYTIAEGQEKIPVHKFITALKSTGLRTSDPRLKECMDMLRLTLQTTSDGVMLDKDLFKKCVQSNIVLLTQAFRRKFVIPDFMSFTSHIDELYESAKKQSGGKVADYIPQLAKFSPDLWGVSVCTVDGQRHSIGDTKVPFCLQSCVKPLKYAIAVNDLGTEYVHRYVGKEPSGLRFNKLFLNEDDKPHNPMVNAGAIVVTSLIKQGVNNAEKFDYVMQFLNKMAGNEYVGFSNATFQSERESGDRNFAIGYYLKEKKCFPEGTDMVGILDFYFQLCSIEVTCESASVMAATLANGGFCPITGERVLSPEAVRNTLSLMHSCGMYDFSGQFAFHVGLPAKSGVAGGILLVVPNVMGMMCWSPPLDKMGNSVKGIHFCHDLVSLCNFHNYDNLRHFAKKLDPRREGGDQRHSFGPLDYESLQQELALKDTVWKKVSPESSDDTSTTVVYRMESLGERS
Kind of experiment: Real-time GAC enzyme activity assay coupled to glutamate dehydrogenase (NADH fluorescence). It counts as biochemical.

The next experiment addresses T2, WT GAC (Mus musculus, UniProt D3Z7P3).
T2 construct: (residues 72-603) was cloned into a pET23a vector; made in house
T2 sequence (D3Z7P3 72-603 isoform D3Z7P3-2): T1 sequence (D3Z7P3 72-603 isoform D3Z7P3-2)
Kind of experiment: In vitro photo cross linking of SU-22 and purification of the conjugate. The conditions noted are these: 100 nM WT GAC, 10 μM SU-22, UV, A350/A280. Format: binding. Here is the method: Conditions of in vitro cross linking of WT GAC, and the K316E/D391K/R459E GAC mutant were adapted for efficient cross linking and purification of the cross linked protein product. WT GAC and the K316E/D391K/R459E GAC mutant, both containing the N-terminal His-tag, were diluted to a concentration of 100 nM in 20 mM Tris-HCl (pH=8.6) 100 mM NaCl, upon which 10 μM of SU-22 was added. Following a preincubation time of 5 minutes, samples were exposed to UV light under a hand held 500 W UV lamp to initiate the photo cross linking. Immediately following, bovine serum albumin (BSA, Sigma) was added to a final concentration of 2 mg/mL to help stabilize the cross linked product and to bind excess un-reacted SU-22. To isolate the cross linked product, 2.5 mg cobalt agarose beads (Clontech) were added and the solution was gravity filtered. […] The purified cross linked protein was then concentrated using spin columns with a 30 kD molecular weight cutoff and quantified using UV-vis spectroscopy, where the protein was quantified using the A280 (ε280=38,850 M−1 cm−1) and the cross-linked SU-22 using the A350 (ε350=18,900 M−1 cm−1). […]

The mark [2] stands for this setting: 8 μM, non-induced and induced cells.

With `CN(C)c1ccc(C2Nc3ccc4ccccc4c3C3=C2C(=O)CC(C)(C)C3)cc1Br` (stereo not shown) [Compound 968], in experiment [1] (8 μM overnight, 8 hour [U-13C]glucose), the “glucose labeling of citrate isotopologues (M+2)” value is on record as “inhibit”. Also, in experiment [1] (setting [2]), the glutamate pool sizes entry is recorded as “modest decrease”; the “pool sizes of fumarate, malate, and citrate” value was “no effect”. The “glutamine-derived 13C isotopic enrichment within TCA cycle intermediates” value in experiment [1] (Dbl-expressing cells, 8 μM overnight, 1 hour [U-13C]glutamine) is “significant reductions”. In addition, the “potency of inhibition of GAC activity” value at GAC (GAC concentration decreased from 50 nM to 5 nM) is “greater potency”. In addition, the “inhibition of enzyme activity” value on GAC (GAC preincubated with inorganic phosphate (50 mM Pi) before 968) is on record as “much less effective”.
On to `CC1(C)CC(=O)C2=C(C1)c1c(ccc3cc4ccccc4cc13)NC2c1ccc(N=[N+]=[N-])cc1` (stereo not shown) [SU-22], for which the “ratio of cross linked SU-22 to protein” value on WT GAC is recorded as 0.52.
